Reference: ChEMBL document CHEMBL4610078, “Bioactive Azepine-Indole Alkaloids from Psychotria nemorosa” (J Nat Prod, 2020)
Activity calls are given as the source filed them. No cut-off for these calls is given here.

Tests used:
[1] = biological target: T1, Amine oxidase [flavin-containing] B (Homo sapiens, UniProt P27338); conditions: 0.5 h, read-out: INH
T1 sequence (P27338 whole entry): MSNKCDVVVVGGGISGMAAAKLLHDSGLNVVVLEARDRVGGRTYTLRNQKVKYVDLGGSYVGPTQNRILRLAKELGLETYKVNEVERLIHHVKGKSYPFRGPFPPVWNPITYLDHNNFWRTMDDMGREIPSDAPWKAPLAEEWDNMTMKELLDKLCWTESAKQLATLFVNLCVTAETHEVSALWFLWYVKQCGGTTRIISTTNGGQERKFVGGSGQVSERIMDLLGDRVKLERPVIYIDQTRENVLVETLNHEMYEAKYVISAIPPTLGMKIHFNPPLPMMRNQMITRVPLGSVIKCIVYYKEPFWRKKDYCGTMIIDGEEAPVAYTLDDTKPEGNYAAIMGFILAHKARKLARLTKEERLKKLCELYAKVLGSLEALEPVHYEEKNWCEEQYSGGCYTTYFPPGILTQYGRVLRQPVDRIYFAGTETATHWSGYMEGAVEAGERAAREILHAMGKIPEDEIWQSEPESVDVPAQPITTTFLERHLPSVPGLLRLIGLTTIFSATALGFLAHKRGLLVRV
Description: Inhibition of recombinant human MAO-B at 10 uM incubated for 30 mins by fluorescence-based method

[2] = biological target: T2, Amine oxidase [flavin-containing] A (Homo sapiens, UniProt P21397)
T2 sequence (P21397 whole entry): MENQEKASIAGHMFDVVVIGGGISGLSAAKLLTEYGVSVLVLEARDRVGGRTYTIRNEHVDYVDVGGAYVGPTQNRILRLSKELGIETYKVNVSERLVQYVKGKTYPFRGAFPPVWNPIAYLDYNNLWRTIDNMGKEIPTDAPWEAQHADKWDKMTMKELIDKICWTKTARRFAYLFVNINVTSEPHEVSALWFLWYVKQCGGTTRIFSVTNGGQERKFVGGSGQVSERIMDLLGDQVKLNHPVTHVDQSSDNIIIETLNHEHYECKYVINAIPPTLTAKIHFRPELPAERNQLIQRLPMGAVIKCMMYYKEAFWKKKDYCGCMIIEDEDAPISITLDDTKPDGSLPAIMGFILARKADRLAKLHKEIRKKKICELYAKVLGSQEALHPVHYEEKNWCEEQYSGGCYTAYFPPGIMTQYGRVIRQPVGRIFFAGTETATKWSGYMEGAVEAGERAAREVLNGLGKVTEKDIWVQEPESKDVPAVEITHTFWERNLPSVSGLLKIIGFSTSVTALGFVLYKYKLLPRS
Description: Inhibition of recombinant human MAO-A incubated for 30 mins by fluorescence-based method

[3] = biological target: Cholinesterase (Equus caballus) (UniProt P81908); experiment: Inhibition of equine serum BChE using (S)-butyrylthiocholine iodide as substrate at 10 uM measured for 6 mins by Ellman's method
[4] = biological target: Acetylcholinesterase (Electrophorus electricus) (UniProt O42275); experiment: Inhibition of electric eel AchE using acetylthiocholine as substrate at 10 uM measured for 6 mins by Ellman's method
Acetylcholinesterase (Electrophorus electricus), sequence (O42275 24-633 limits assumed): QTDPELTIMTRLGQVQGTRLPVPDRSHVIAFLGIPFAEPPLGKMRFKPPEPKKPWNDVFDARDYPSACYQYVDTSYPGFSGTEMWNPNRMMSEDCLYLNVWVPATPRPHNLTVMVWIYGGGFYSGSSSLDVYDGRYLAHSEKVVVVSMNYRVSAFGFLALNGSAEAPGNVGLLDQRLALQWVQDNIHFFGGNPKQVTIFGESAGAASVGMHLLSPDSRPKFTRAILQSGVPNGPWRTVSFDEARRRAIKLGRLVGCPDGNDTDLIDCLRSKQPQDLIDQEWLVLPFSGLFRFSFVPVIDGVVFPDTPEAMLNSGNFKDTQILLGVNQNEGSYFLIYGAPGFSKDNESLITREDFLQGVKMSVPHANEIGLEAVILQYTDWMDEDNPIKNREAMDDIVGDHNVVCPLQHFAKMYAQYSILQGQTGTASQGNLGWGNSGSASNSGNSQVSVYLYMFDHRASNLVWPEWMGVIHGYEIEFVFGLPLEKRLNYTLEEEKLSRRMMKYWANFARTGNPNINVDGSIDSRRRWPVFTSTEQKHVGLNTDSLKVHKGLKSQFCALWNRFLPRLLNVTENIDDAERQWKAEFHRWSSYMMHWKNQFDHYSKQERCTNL

Cholinesterase (Equus caballus), sequence (P81908 whole entry): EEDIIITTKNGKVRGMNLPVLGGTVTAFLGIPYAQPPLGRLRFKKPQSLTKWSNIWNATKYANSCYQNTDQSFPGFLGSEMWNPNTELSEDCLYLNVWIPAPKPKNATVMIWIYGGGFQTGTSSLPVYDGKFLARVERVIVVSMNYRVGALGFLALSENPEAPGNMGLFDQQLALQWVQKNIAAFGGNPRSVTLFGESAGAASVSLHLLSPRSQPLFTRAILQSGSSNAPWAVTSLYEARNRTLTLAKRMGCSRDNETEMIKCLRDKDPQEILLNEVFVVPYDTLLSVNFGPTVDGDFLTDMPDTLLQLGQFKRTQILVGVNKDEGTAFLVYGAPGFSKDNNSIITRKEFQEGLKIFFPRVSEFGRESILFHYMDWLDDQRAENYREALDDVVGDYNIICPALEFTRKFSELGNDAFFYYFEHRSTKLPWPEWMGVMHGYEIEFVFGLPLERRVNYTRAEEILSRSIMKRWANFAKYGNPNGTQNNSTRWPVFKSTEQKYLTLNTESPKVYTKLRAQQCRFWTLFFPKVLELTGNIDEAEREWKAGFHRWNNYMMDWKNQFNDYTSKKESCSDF

How did the inhibition at 10 µM [1] turn out when `C#CCN(C)Cc1ccccc1` [PARGYLINE] was run?
The inhibition at 10 µM was 0.14%.

Which IC50 [2] does the source give for `C[N+]1=Cc2c(O)ccc3[nH]cc(c23)CC1` here?
The IC50 was 0.9 µM.

And the inhibition [3]?
Its inhibition is 21%.

What about the inhibition at 10 µM [1] of the same molecule?
The inhibition at 10 µM was 31%.

What about the inhibition [4] of the same molecule?
The inhibition was “inactive”.

`C=C[C@H]1[C@H](O[C@@H]2O[C@H](COC(=O)/C=C/c3ccc(OC)c(OC)c3)[C@@H](O)[C@H](O)[C@H]2O)OC=C(C(=O)OC)[C@H]1C[C@H]1c2c(O)ccc3[nH]cc(c23)CCN1C` was tested. Which IC50 [2] did it give?
The IC50 was greater than 10 µM.

And the inhibition [3]?
The inhibition was “inactive”.

And the inhibition [4]?
Its inhibition is “inactive”.

What does the source list for `C=C[C@H]1[C@H](O[C@@H]2O[C@H](CO)[C@@H](O)[C@H](O)[C@H]2O)OC=C(C(=O)OC)[C@H]1C[C@@H]1c2c(O)ccc3[nH]cc(c23)CCN1C`?
IC50 [2]: > 10 µM; inhibition [3]: inactive; inhibition [4]: inactive

Which results are given for `CN1CCc2c[nH]c3ccc(O)c(c23)C1`?
IC50 [2]: 1.4 µM; inhibition [3]: 18%; inhibition at 10 µM [1]: 22%; inhibition [4]: inactive

How did the IC50 [2] turn out when `C[N+]1([O-])CCc2c[nH]c3ccc(O)c(c23)C1` (configuration not stated) was run?
Its IC50 is 1.4 µM.

And the inhibition [3]?
Its inhibition is 41%.

What about the inhibition at 10 µM [1] of the same molecule?
Its inhibition at 10 µM is 27%.

And the inhibition [4]?
Its inhibition is “inactive”.

With `C=C[C@H]1[C@H](O[C@@H]2O[C@H](CO)[C@@H](O)[C@H](O)[C@H]2O)OC=C(C(=O)OC)[C@H]1C[C@H]1c2c(O)ccc3[nH]cc(c23)CCN1C` as the molecule, how does the IC50 [2] read?
Its IC50 is greater than 10 µM.

And the inhibition [3]?
Its inhibition is “inactive”.

And the inhibition [4]?
Its inhibition is “inactive”.
